The results in this text go back to patent publication US20120270905A1, “FLUORINATED 2,6-DIALKYL-3,5-DICYANO-4-(1H-INDAZOL-5-YL)-1,4-DIHYDROPYRIDINES AND METHODS OF USE THEREOF” (BAYER PHARMA AKTIENGESELLSCHAFT, priority 2009, published 2012).

The target of data set [1] is T1, Recombinant human c-Met protein (Homo sapiens, UniProt P08581).
T1 construct: purchased Invitrogen
Briefly: c-Met receptor tyrosine kinase activity assay (NADH read-out). As to conditions: c-Met 30 nM, ATP 30 μM, 100 min at 32° C. Format: biochemical. How it is done:
c-Met Receptor Tyrosine Kinase Activity Assay (NADH Read-Out):
Recombinant human c-Met protein (Invitrogen, Carlsbad, Calif., USA) is used. As substrate for the kinase reaction the peptide KKKSPGEYVNIEFG (JPT, Germany) is used. For the assay, 1 μL of a 51-fold concentrated solution of the test compound in DMSO is pipetted into a white 384-well microtiter plate (Greiner Bio-One, Frickenhausen, Germany). 25 μL of a solution of c-Met (final concentration 30 nM) and pyruvate kinase/lactate dehydrogenase (Roche Diagnostics, Mannheim, Germany; final concentration 8 mg/L) in assay buffer [3-(N-morpholino)propanesulfonic acid (MOPS), 50 mM, pH 7; MgCl2, 10 mM; bovine serum albumin (BSA), 0.01%; Triton X 100, 0.01%; DTT, 2 mM] are added, and the mixture is incubated for 5 min at room temperature. Then, the kinase reaction is started by the addition of 25 μL of a solution of adenosine triphosphate (ATP, final concentration 30 μM), substrate (final concentration 100 μM), nicotinamide adenine dinucleotide (NADH, final concentration 50 μM) and dithiothreitol (DTT, final concentration 2 mM) in assay buffer, and the resulting mixture is incubated for a reaction time of 100 min at 32° C.
Subsequently, the amount of phosphorylated substrate is evaluated by measurement of the decrease of NADH fluorescence. Therefore, the fluorescence emissions at 465 nm after excitation at 340 nm is measured in a fluorescence reader, e.g. Tecan Ultra (Tecan, Männedorf, Switzerland). The data are normalised (enzyme reaction without inhibitor=0% inhibition; all other assay components but no enzyme=100% inhibition).
Some representative IC50 values are listed in Table 1 below together with corresponding data for a structurally related, non-fluorinated compound from prior art (cf. WO 2008/071451): […]

A short description of data set [2]: Caco-2 permeability assay. Format: in vitro ADME. As to conditions: human, apical to basolateral, test concentration 2 μM, 2 h at 37° C., read-out: Caco-2 permeability PappA-B. From the text: Caco-2 Permeability Assay:
The in vitro permeation of a test compound across a Caco-2 cell monolayer is a well-established assay system to predict the permeability from the gastro-intestinal tract [cf. P. Artursson and J. Karlsson: Correlation between oral drug absorption in humans and apparent drug permeability coefficients in human intestinal epithelial (Caco-2) cells, Biochem. Biophys. 175 (3), 880-885 (1991)]. The permeability of the compounds of the present invention in such Caco-2 cells was deter-mined as described below:
Human Caco-2 cells (ACC No. 169, DSMZ, German Collection of Microorganisms and Cell Cultures, Braunschweig, Germany) are seeded on 24-well insert plates and are allowed to grow for 14-16 days. For permeability studies, the test compounds are dissolved in DMSO and diluted to the final test concentration of 2 μM with transport buffer [Hanks' Buffered Salt Solution, Gibco/Invitrogen, further supplemented with glucose (final concentration 19.9 mM) and HEPES (final concentration 9.8 mM)]. For determination of the apical to basolateral permeability (PappA-B), the test compound solution is added to the apical side of the cell monolayer and transport buffer to the basolateral side of the monolayer; for determination of the basolateral to apical permeability (PappB-A), the test compound solution is added to the basolateral side of the cell monolayer and transport buffer to the apical side of the monolayer. Samples are taken from the donor compartment at the beginning of the experiment to confirm mass balance. After an incubation of 2 h at 37° C., samples are taken from both compartments. Samples are analyzed by LC-MS/MS, and the apparent permeability coefficients are calculated. Lucifer Yellow permeability is assayed for each cell monolayer to ensure cell monolayer integrity, and the permeability of Atenolol (low permeability marker) and Sulfasalazine (marker for active excretion) is determined for each batch as quality control. […]

Data set [3] addresses T2, recombinant kinase domain of the human c-Met (amino acids 960-1390) (Homo sapiens, UniProt P08581).
T2 construct: kinase domain of the human c-Met (amino acids 960-1390); His6 (N); made in house; host or cells: insect cells (SF21)
Briefly: c-Met receptor tyrosine kinase homogeneous time-resolved fluorescence assay (alternative format). It counts as biochemical. As to conditions: HTRF format; ATP 10 μM, 30 min at 22° C. From the text: c-Met Receptor Tyrosine Kinase Homogeneous Time-Resolved Fluorescence Assay (Alternative Format):
The N-terminally His6-tagged recombinant kinase domain of the human c-Met (amino acids 960-1390), expressed in insect cells (SF21) and purified by Ni-NTA affinity chromatography and consecutive size exclusion chromatography (Superdex 200), is used. Alternatively, commercially available c-Met (Millipore) can be used. As substrate for the kinase reaction, the biotinylated poly-Glu,Tyr (4:1) copolymer (#61GT0BLC, Cis Biointernational, Marcoule, France) is used.
For the assay, 50 nL of a 100-fold concentrated solution of the test compound in DMSO is pipetted into a black low-volume 384-well microtiter plate (Greiner Bio-One, Frickenhausen, Germany). […]
The resulting mixture is incubated for 1 h at 22° C. to allow the binding of the biotinylated phosphorylated peptide to the streptavidine-XLent and the PT66-Eu-chelate. Subsequently, the amount of phosphorylated substrate is evaluated by measurement of the resonance energy transfer from the PT66-Eu-chelate to the streptavidine-XLent. Therefore, the fluorescence emissions at 620 nm and 665 nm after excitation at 350 nm are measured in an HTRF reader, e.g. Rubystar (BMG Lab-technologies, Offenburg, Germany) or Viewlux (Perkin-Elmer). […]
(In general: TR-FRET usually uses a lanthanide donor and a delayed reading to cut background.)

SMILES strings stand for the structures.

T1 sequence (P08581 25-1390): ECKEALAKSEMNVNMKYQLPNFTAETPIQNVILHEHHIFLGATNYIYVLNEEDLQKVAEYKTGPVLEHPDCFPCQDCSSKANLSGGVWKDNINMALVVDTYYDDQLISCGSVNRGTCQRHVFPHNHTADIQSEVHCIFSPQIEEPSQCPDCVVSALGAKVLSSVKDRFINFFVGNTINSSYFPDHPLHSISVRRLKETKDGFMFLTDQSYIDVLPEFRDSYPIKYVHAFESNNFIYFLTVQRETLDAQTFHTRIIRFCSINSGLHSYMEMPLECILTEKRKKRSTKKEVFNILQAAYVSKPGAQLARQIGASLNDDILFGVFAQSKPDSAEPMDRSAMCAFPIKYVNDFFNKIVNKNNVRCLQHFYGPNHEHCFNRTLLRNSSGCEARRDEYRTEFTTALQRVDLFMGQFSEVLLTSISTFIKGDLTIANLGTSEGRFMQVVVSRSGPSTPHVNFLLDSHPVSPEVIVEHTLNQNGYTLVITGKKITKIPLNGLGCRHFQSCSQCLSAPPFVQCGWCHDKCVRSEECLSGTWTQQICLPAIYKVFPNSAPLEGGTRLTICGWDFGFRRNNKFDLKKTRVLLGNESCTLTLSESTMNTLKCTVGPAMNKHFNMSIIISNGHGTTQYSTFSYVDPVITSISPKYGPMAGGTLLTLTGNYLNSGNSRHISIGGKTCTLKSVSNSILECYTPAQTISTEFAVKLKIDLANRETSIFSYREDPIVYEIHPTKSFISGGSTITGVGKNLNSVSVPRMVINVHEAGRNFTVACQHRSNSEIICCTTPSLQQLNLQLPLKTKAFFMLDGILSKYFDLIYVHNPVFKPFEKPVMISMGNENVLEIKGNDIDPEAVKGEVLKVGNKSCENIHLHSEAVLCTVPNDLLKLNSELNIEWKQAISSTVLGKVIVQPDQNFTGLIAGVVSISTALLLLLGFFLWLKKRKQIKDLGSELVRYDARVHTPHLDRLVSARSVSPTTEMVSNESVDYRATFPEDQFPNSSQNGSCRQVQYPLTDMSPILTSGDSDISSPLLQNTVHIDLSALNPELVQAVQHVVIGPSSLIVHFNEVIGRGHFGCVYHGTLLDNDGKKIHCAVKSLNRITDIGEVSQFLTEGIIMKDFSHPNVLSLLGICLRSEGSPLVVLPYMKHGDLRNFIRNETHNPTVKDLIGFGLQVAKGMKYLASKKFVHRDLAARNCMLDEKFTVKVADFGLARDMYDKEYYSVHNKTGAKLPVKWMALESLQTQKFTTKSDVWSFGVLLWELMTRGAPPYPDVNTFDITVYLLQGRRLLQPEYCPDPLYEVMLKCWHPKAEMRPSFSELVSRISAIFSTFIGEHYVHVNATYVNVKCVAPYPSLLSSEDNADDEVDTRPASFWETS
T2 sequence (P08581 960-1390): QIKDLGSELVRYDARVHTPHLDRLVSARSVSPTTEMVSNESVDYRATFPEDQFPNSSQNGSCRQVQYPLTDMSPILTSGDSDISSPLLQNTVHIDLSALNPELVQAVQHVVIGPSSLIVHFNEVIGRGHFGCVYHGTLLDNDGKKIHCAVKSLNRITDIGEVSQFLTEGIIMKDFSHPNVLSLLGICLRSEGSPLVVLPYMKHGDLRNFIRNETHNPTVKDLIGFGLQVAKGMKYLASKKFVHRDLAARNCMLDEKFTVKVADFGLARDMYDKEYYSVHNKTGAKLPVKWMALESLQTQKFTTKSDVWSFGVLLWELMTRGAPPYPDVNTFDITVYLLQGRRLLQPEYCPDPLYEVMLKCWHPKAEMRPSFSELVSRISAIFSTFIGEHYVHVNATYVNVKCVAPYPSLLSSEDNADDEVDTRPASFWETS

As for `CCC1=C(C#N)C(c2ccc3[nH]nc(C)c3c2)C(C#N)=C(C(F)F)N1` (centres unmarked) [Example 13, 2-(Difluoromethyl)-6-ethyl-4-(3-methyl-1H-indazol-5-yl)-1,4-dihydropyridine-3,5-dicarbonitrile], in data set [1], the IC50 stood at 9 nM. Also, the Papp A→B at 2 h, 2 μM in data set [2] came out at 25.9 ×10⁻⁶ cm/s. With `Cc1n[nH]c2cc(F)c(C3C(C#N)=C(CCC(F)(F)F)NC(C(F)(F)F)=C3C#N)cc12` (racemic) [Example 7, 4-(6-Fluoro-3-methyl-1H-indazol-5-yl)-2-(trifluoromethyl)-6-(3,3,3-trifluoropropyl)-1,4-dihydro-pyridine-3,5-dicarbonitrile], in data set [1], the IC50 came out at 52 nM. The Papp A→B at 2 h, 2 μM in data set [2] is 20.4 ×10⁻⁶ cm/s.

Regarding `Cc1n[nH]c2ccc(C3C(C#N)=C(CCC(C)C)NC(C(F)(F)F)=C3C#N)cc12` (racemic) [Example 1, 2-(3-Methylbutyl)-4-(3-methyl-1H-indazol-5-yl)-6-(trifluoromethyl)-1,4-dihydropyridine-3,5-dicarbonitrile], the concentration for half-maximal inhibition (IC50) in data set [1] was 16 nM. Moreover, in data set [2], the Papp A→B at 2 h, 2 μM was determined as 21.7 ×10⁻⁶ cm/s.

Take `Cc1n[nH]c2ccc(C3C(C#N)=C(CCC(F)(F)F)NC(C(F)F)=C3C#N)cc12` (centres unmarked) [Example 14, 2-(Difluoromethyl)-4-(3-methyl-1H-indazol-5-yl)-6-(3,3,3-trifluoropropyl)-1,4-dihydropyridine-3,5-dicarbonitrile]: in data set [1], the IC50 was 17 nM. `Cc1n[nH]c2cc(F)c(C3C(C#N)=C(CCC(F)(F)F)NC(C(F)F)=C3C#N)cc12` (racemic) [Example 10, 2-(Difluoromethyl)-4-(6-fluoro-3-methyl-1H-indazol-5-yl)-6-(3,3,3-trifluoropropyl)-1,4-dihydropyridine-3,5-dicarbonitrile]: the IC50 in data set [1] amounted to 26 nM; in data set [3], 11 nM. Take `N#CC1=C(CCC(F)(F)F)NC(C(F)(F)F)=C(C#N)C1c1ccc2[nH]ncc2c1` (centres unmarked) [Example 16, 4-(1H-Indazol-5-yl)-2-(trifluoromethyl)-6-(3,3,3-trifluoropropyl)-1,4-dihydro-pyridine-3,5-dicarbonitrile]: the IC50 in data set [1] was determined as 29 nM.

Turning to `CCC1=C(C#N)C(c2ccc3[nH]nc(C)c3c2)C(C#N)=C(C(F)(F)F)N1` (centres unmarked) [Example 4, 2-Ethyl-4-(3-methyl-1H-indazol-5-yl)-6-(trifluoromethyl)-1,4-dihydropyridine-3,5-dicarbonitrile], in data set [3], the 50% inhibitory concentration (IC50) is 11 nM.

For orientation: IC50 means the concentration that gives 50% inhibition.
